The values below come from patent US20230052403A1, “MIXTURES COMPRISING A SOLID CARRIER COMPRISING AN UREASE INHIBITOR AND A FURTHER SOLID CARRIER COMPRISING A NITRIFICATION INHIBITOR” (BASF SE, priority 2020, published 2023).

Like-named read-outs stand apart in the source and are kept apart here.

In this series the test system is urease.

Description: The urea-stabilizing effect detected as the volatile NH3 losses from soil surface applied urea:
176 g air dried soil is filled into 500 mL laboratory bottle, which is then be watered with de-ionized water up to 50% of its water holding capacity and incubated at room temperature (about 21° C.) for 24 h.
Urea granules are evenly distributed on the soil in each bottle. Each granule is treated with 5 μL of the respective products, containg the compositions and mixtures of the invention in the appropriate concentrations. N amount applied was 80 mg per bottle.
NH3 free air blows constantly at a rate of about 4 L per min. through the bottle which bubbles through a scrubber solution which is periodically renewed and analyzed for NH4^+ with an autoanalyzer.

Take `CCCCNP(N)(N)=S` [NBPT, N-(n-butyl)thiophosphoric acid triamide]: the “reduction of NH3—N losses (UI effect), in words” value is listed as “Nearly no reduction of NH3—N losses” (Piammon, UI and DMPP on the same granules); “Significant reduction of NH3—N losses” (UI applied on Piammon granules only as well as mixed with DMPSA-treated AS granules); “Significant reduction of NH3—N losses” (UI applied on urea granules only and mixed with DMPP-treated AS granules); “Significant reduction of NH3—N losses” (UI applied on urea granules only and mixed with DMPP-treated urea granules); “Significant reduction of NH3—N losses” (UI applied on urea granules only as well as mixed with DMPSA-treated urea granules); “No reduction of NH3—N losses” (urea, UI and DMPP on the same urea granules). The “stability of the urease inhibitor, in words” value reads like this: (UI and DMPP on the same Piammon granules) “destroyed by DMPP”; (UI and DMPP on the same urea granules) “destroyed by DMPP”.
